What was measured:
[1] = reversion of Compound 1 to β-lapachone in dilute or buffered solution (UV-vis, HPLC); format: physicochemical
Source text: Thus, compound 1 also reverts back to β-lapachone under the conditions of high pH or when mixed with plasma. The hydroxy sulfonate of β-lapachone easily reverts back to β-lapachone in dilute solutions of bisulfite and other reagents. […] However, the mass by LC/MS for Compound 1 can be obtained using a short LC method where the acetonitrile/water mobile phase is acidified with 0.1% formic acid. Even under these conditions, two peaks are observed, one peak corresponding to Compound 1, and one to the β-lapachone released from the complex.

[2] = reversion of Compound 1 to β-lapachone in human plasma (UV-vis); format: in vitro ADME; conditions: diluted human plasma
Source text: Thus, compound 1 also reverts back to β-lapachone under the conditions of high pH or when mixed with plasma.

[3] = equilibrium solubility of β-lapachone with bisulfites, HPLC; format: physicochemical; conditions: 3-15 mg/mL sodium metabisulfite or sodium bisulfite in water or 2.5-5% HPβCD; shaken 24 hours
Description: Solutions of bisulfites at different concentrations were prepared in water or 2.5% HPβCD and an excess amount of β-lapachone was added to obtain a saturated solution. These solutions were shaken for 24 hours, filtered through a 0.45 μm filter, and analyzed for β-lapachone concentration by HPLC. The equilibrium solubility results, in the presence and absence of HPβCD, are illustrated in FIGS. 1A to 1C. Bisulfite can enhance the equilibrium solubility of β-lapachone depending on the concentration of the bisulfites. […] The solubility of the β-lapachone is directly proportional with the amounts of bisulfites added, until they reach respective saturation concentrations (See FIG. 1C).

[4] = maximum concentrations of β-lapachone converted to Compound 1 at different pHs; format: physicochemical
[5] = Source text: Methyl beta-cyclodextrin (MeβCD) is a derivative of beta-cyclodextrin with 1-7 methyl substituents on the secondary O-2 positions.
HPβCD with two different degrees of substitutions, 6.9 and 4.3, were compared in terms of β-lapachone solubility.

human cancer cell lines = conditions: single agent, typical range, read-out: antineoplastic activity (IC50); cited from earlier work
[6] = test system: normal or proliferating human PBMC; conditions: cited from earlier work

| stability: reversion to β-lapachone ([1]; diluted with mobile phase of acetonitrile and phosphate buffer pH 6.8, HPLC) | stability: reversion to β-lapachone ([1]; dilution to 20-100 μM or less, or pH increased to 6-7 or higher in combination with dilution, UV-vis) | stability in human plasma: reversion to β-lapachone ([2]; pH 7, listed as compound 1) | Structure (SMILES) | stability: reversion to β-lapachone ([1]; diluted in phosphate buffered saline at pH 7, UV-vis) | stability in human plasma: reversion to β-lapachone ([2]; pH 7) | equilibrium solubility in aqueous solution [3] | Converted β-lapachone Conc. ([4]; Na2S2O5 5 mg/mL, pH of the formulation 3.01) [mg/mL] | Converted β-lapachone Conc. ([4]; Na2S2O5 5 mg/mL, pH of the formulation 4.46) [mg/mL] | Converted β-lapachone Conc. ([4]; Na2S2O5 5 mg/mL, pH of the formulation 7.04) [mg/mL] | Converted β-lapachone Conc. ([4]; NaHSO3 5 mg/mL, pH of the formulation 3.29) [mg/mL] | Converted β-lapachone Conc. ([4]; NaHSO3 5 mg/mL, pH of the formulation 4.52) [mg/mL] | Converted β-lapachone Conc. ([4]; NaHSO3 5 mg/mL, pH of the formulation 7.04) [mg/mL] | higher solubilizing effect of HPβCD of lower degree of substitution on β-lapachone solubility [5] | IC50 (human cancer cell lines) [µM] | cytotoxic effects [6] |
| --- | --- | --- | --- | --- | --- | --- | --- | --- | --- | --- | --- | --- | --- | --- | --- |
| only the β-lapachone can be detected | converts Compound 1 back to β-lapachone | the only species present is β-lapachone | CC1(C)CCC2=C(O1)c1ccccc1C(O)(S(=O)(=O)[O-])C2=O.[Na+] (stereo not drawn) [Compound 1, Sodium 6-hydroxy-2,2-dimethyl-5-oxo-3,4,5,6-tetrahydro-2H-benzo(h)chromene-6-sulfonate] | UV-vis spectrum become identical to that for a solution of β-lapachone | UV-vis spectrum become identical to that for a solution of β-lapachone |  |  |  |  |  |  |  |  |  |  |
|  |  |  | CC1(C)CCC2=C(O1)c1ccccc1C(=O)C2=O [β-lapachone, 3,4-dihydro-2,2-dimethyl-2H-naphtho[1,2-b]pyran-5,6-dione] |  |  | dramatically improve the solubility | 5.90 | 5.76 | 1.88 | 5.76 | 5.97 | 2.23 | 16-17% | 1 to 10 | No cytotoxic effects were observed |

— patent US7790765B2, “Hydroxy sulfonate of quinone compounds and their uses” (ArQule, Inc., priority 2007, dated 2010)
